# Assays:
# Assay in all cases: Kinase profiling, Invitrogen Z'-LYTE
# Format in all cases: biochemical
# Conditions in all cases: Table 2
# PRKX = target: T1, PRKX (Homo sapiens, UniProt P51817)
# T1 construct: purchased Invitrogen
# T1 sequence (P51817 1-358): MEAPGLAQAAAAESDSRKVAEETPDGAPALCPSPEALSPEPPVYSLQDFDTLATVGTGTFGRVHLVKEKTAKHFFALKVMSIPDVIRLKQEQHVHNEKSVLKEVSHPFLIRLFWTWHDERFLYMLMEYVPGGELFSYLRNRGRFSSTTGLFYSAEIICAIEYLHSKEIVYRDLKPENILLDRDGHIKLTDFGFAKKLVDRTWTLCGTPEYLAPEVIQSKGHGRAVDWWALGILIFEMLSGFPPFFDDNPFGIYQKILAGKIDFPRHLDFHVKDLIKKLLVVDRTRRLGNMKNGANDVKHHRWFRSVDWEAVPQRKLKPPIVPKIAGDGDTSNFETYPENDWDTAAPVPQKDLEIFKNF
# Method: (§1) Kinase profiling was conducted using Invitrogen Z'-LYTE screening protocol and assay conditions found at www.invitrogen.com. Compound (2) inhibited PLK1 completely at 5 μM.
# EPHA1 = target: T2, EPHA1 (Homo sapiens, UniProt P21709)
# T2 construct: purchased Invitrogen
# T2 sequence (P21709 26-976): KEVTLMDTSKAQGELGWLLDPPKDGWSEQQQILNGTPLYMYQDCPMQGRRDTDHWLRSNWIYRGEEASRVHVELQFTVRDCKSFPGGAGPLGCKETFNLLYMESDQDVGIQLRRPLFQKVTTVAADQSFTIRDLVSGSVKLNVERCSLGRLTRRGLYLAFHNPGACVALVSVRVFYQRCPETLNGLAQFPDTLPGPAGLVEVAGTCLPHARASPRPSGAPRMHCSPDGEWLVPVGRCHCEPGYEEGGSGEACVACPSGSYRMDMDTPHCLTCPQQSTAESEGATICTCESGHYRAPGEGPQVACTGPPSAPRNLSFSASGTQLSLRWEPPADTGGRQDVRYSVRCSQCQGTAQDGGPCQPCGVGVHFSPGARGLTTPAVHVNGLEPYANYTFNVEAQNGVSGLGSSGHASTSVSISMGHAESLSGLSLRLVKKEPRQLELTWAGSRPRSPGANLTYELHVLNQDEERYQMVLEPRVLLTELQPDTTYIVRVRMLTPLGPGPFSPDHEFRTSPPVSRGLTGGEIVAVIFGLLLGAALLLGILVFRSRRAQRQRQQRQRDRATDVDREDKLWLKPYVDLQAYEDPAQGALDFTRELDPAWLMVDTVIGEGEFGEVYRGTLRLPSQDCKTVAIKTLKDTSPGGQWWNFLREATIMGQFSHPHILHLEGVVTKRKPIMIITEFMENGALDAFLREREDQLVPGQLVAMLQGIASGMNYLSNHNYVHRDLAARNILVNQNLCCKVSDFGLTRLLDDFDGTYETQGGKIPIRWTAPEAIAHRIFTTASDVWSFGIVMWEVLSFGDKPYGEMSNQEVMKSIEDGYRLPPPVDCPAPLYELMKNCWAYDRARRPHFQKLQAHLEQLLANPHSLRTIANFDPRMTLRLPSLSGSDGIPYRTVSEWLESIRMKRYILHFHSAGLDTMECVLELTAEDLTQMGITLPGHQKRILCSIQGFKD
# Method: as §1
# PHKG2 = target: T3, PHKG2 (Homo sapiens, UniProt P15735)
# T3 construct: purchased Invitrogen
# T3 sequence (P15735 1-406): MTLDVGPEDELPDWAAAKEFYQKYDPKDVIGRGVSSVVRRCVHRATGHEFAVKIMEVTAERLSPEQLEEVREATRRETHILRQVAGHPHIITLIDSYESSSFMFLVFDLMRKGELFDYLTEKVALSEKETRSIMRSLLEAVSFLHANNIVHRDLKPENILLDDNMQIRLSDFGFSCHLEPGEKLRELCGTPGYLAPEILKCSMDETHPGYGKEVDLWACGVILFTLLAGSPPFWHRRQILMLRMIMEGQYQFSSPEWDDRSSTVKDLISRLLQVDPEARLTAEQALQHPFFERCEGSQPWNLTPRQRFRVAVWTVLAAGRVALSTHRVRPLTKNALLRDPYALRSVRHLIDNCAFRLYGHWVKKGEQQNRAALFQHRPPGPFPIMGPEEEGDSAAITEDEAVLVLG
# Method: as §1
# FLT3 D835Y = target: T4, FLT3 D835Y (Homo sapiens, UniProt P36888, D835Y)
# T4 construct: purchased Invitrogen
# T4 sequence (P36888 27-993 D835Y): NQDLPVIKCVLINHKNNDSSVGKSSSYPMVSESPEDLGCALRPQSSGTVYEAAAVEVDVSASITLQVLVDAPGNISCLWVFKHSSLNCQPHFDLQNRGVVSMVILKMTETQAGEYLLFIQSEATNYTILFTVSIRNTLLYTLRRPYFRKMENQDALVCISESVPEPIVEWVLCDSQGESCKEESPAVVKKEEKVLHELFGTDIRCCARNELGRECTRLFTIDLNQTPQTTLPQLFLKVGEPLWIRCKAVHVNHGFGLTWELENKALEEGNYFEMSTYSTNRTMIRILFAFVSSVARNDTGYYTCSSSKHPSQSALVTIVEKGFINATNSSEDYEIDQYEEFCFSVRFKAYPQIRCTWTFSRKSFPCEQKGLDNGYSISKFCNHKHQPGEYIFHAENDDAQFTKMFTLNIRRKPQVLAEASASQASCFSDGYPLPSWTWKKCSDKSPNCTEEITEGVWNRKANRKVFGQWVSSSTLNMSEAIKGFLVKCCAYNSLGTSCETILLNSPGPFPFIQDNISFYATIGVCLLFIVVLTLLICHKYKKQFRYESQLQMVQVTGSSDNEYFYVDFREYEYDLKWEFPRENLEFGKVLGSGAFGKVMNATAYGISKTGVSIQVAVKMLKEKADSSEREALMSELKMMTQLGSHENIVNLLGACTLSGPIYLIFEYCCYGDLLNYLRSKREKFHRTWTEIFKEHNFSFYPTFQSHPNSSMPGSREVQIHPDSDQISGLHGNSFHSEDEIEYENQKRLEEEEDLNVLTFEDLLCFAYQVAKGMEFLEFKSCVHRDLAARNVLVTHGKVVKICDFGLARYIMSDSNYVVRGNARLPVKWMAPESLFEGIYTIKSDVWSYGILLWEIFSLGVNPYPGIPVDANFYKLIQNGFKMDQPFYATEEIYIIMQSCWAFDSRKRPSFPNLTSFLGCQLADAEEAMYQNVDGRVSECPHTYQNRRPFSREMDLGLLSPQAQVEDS
# Method: as §1
smiles,measurement,setting,value
COc1ccc(OC(=O)n2c(=O)oc3cc(C(C)=O)ccc32)cc1 [Compound 2],% Inhibition Point 1,PRKX,−135%
same,% Inhibition Point 2,PRKX,−134%
same,% Inhibition mean,PRKX,−135%
same,% Inhibition Point 1,EPHA1,−62%
same,% Inhibition Point 2,EPHA1,−107%
same,% Inhibition mean,EPHA1,−85%
same,% Inhibition Point 1,PHKG2,−360%
same,% Inhibition Point 2,PHKG2,−308%
same,% Inhibition mean,PHKG2,−334%
same,% Inhibition Point 1,FLT3 D835Y,−41%
same,% Inhibition Point 2,FLT3 D835Y,−43%
same,% Inhibition mean,FLT3 D835Y,−42%

# Source: patent US9573911B2, “Diphosphate mimetics and uses thereof” (President and Fellows of Harvard College, priority 2011, dated 2017)
